Data as given in US8940768B2, “Antifungal triazole derivatives” (Daewoong Pharmaceutical Co., Ltd., priority 2010, dated 2015).
≈ marks a conversion by molar mass, not a printed value. Where two headings read alike, the source gives them in different places.

Experiments:
Format in all cases: cell-based
[1] = tested on: Candida parapsilosis; test: in vitro antifungal activity (MIC80), Candida parapsilosis; conditions: Lodderomyces parapsilosis; 80% growth inhibition vs negative control; RPMI 1640; read 24 hrs after application; read-out: Antifungal Activity (MIC80) C. parapsilosis
Experimental: (§1) The compounds of the present invention were evaluated for inhibitory activity against yeast molds including Candida albicans, Candida glabrata, Candida krusei, Candida tropicalis, Candida parapsilosis, and Cryptococcus neoformans, and filamentous fungi including Aspergillus fumigatus, Trichophyton mentagrophytes (obtained from KCTC (Korean Collection for Type Cultures), and Trichophyton rubrum (obtained from KCCM (Korean Culture Center of Microorganisms). All the strains, but Trichophyton mentagrophytes and Trichophyton rubrum, were purchased from the ATCC (American Type Culture Collection).
(§2) Of the strains used in this test, Candida albicans, Candida glabrata, Candida krusei, Candida tropicalis, Candida parapsilosis, Trichophyton mentagrophytes and Trichophyton rubrum were inoculated into sabouraud dextrose agars (Difco, BD-0109), Cryptococcus neoformans into a yeast mold agar (YM agar, Difco, 271210), and Aspergillus fumigatus into a malt extract agar (Difco, 211220), before incubation at 35° C. for two to ten days.
(§3) From the agars on which the yeast molds were grown, single colonies were picked up, and each was sufficiently suspended in 5 mL of already prepared, 0.85% sterile saline. After correction of the absorbance to 0.108 at 530 nm, each of the suspensions was diluted to a ratio of 1:50 in an RPMI (Roswell park memorial institute) 1640 medium and then to a ratio of 1:20 to prepare an inoculum having a cell density of from 1.0×10^3 to 5.0×10^3CFU/mL. The cell density was adjusted into […]˜5.0×10^4 CFU/mL for Aspergillus fumigates and 0.4×10^4˜5.0×10^4 CFU/mL for both Trichophyton mentagrophytes and Trichophyton rubrum.
(§4) The antifungal agent samples were prepared by diluting the active compounds in an RPMI 1640 medium to a serial density of from 0.0156 to 32 μg/mL. In this context, dimethylsulfoxide (DMSO) was used as an excipient at a final concentration of 1% (v/v). The serial dilutions were aliquoted at a volume of 0.1 mL and applied to 0.1 mL of the aliquots of each inoculum, followed by incubation.
(§5) With the naked eyes, an observation was made of all of the yeast molds, but Cryptococcus neoformans 24 hrs after the application, Cryptococcus neoformans and Aspergillus fumigatus 48 hrs after the application, and Trichophyton mentagrophytes and Trichophyton rubrum five days after the application to examine whether the fungi grew or not. In addition, Alamarblue™ as used to determine the concentrations of the compounds of the present invention at which the growth of the microorganisms was 80% inhibited compared to that of the negative control. All experiments were performed in duplicate for each of the test concentration groups.

[2] = tested on: Candida glabrata; test: in vitro antifungal activity (MIC80), Candida glabrata; conditions: Nakaseomyces glabratus, 24 h, read-out: Antifungal Activity (MIC80) C. grabrata
Experimental: as §1, §2, §3, §4, §5

[3] = tested on: Trichophyton mentagrophytes; test: in vitro antifungal activity (MIC80), Trichophyton mentagrophytes; conditions: 120 h, 80% growth inhibition vs negative control, RPMI 1640, read five days after application
Experimental: as §1, §2, §3, §4, §5

[4] = tested on: Trichophyton rubrum; test: in vitro antifungal activity (MIC80), Trichophyton rubrum; conditions: 120 h, 80% growth inhibition vs negative control, RPMI 1640, read five days after application
Experimental: as §1, §2, §3, §4, §5

[5] = tested on: Aspergillus fumigatus; test: in vitro antifungal activity (MIC80), Aspergillus fumigatus; conditions: 80% growth inhibition vs negative control, RPMI 1640, read 48 hrs after application
Experimental: as §1, §2, §3, §4, §5

[6] = tested on: Candida krusei; test: in vitro antifungal activity (MIC80), Candida krusei; conditions: Pichia kudriavzevii; 80% growth inhibition vs negative control; RPMI 1640; read 24 hrs after application; read-out: Antifungal Activity (MIC80) C. krusei
Experimental: as §1, §2, §3, §4, §5

[7] = tested on: Candida albicans; test: in vitro antifungal activity (MIC80), Candida albicans; conditions: 80% growth inhibition vs negative control, RPMI 1640, read 24 hrs after application
Experimental: as §1, §2, §3, §4, §5

[8] = tested on: Candida tropicalis; test: in vitro antifungal activity (MIC80), Candida tropicalis; conditions: 80% growth inhibition vs negative control, RPMI 1640, read 24 hrs after application, read-out: Antifungal Activity (MIC80) C. tropicalis
Experimental: as §1, §2, §3, §4, §5

[9] = Table 1, read-out: Antifungal Activity (MIC80) C. albicans
[10] = Table 2, read-out: Antifungal Activity (MIC80) Candida albicans

MIC80 [7, 10] [mg/L]	Structure (SMILES)	MIC80 [1] [mg/L]	MIC80 [2] [mg/L]	MIC80 [3] [mg/L]	MIC80 [4] [mg/L]	MIC80 [5] [mg/L]	MIC80 [6] [mg/L]	MIC80 [7, 9] [mg/L]	MIC80 [8] [mg/L]
–	C[C@@H](NC1CCN(c2ncc(F)cn2)CC1)[C@](O)(Cn1cncn1)c1ccc(F)cc1F [Example 151, (2R,3R)-2-(2,4-difluorophenyl)-3-((1-(5-fluoropyrimidin-2-yl)piperidin-4-yl)-amino)-1-(1H-1,2,4-triazol-1-yl)butan-2-ol]	0.125 (≈ 0.279 µM)	1 (≈ 2.23 µM)	≤ 0.004	0.015 (≈ 0.0335 µM)	1 (≈ 2.23 µM)	0.25 (≈ 0.559 µM)	≤ 0.015	0.25 (≈ 0.559 µM)
–	C[C@@H](N1CCC(Oc2ccc(C(F)(F)F)cc2)CC1)[C@](O)(Cn1cncn1)c1ccc(F)cc1F [Example 13, (2R,3R)-2-(2,4-difluorophenyl)-1-(1H-1,2,4-triazol-1-yl)-3-(4-(4-(trifluoromethyl)phenoxy)piperidin-1-yl)butan-2-ol]	–	–	–	–	1 (≈ 2.01 µM)	–	≤ 0.015	–
–	C[C@@H](N1CCC(Nc2ccc(F)cn2)CC1)[C@](O)(Cn1cncn1)c1ccc(F)cc1F [Example 58, (2R,3R)-2-(2,4-difluorophenyl)-3-(4-((5-fluoropyridin-2-yl)amino)piperidin-1-yl)-1-(1H-1,2,4-triazol-1-yl)butan-2-ol]	0.062 (≈ 0.139 µM)	1 (≈ 2.24 µM)	≤ 0.125	≤ 0.125	0.125 (≈ 0.28 µM)	0.062 (≈ 0.139 µM)	≤ 0.015	0.125 (≈ 0.28 µM)
–	C[C@@H](N1CCC(Nc2ncc(F)cn2)CC1)[C@](O)(Cn1cncn1)c1ccc(F)cc1F [Example 63, (2R,3R)-2-(2,4-difluorophenyl)-3-(4-((5-fluoropyrimidin-2-yl)amino)piperidin-1-yl)-1-(1H-1,2,4-triazol-1-yl)butan-2-ol]	–	1 (≈ 2.23 µM)	≤ 0.004	0.015 (≈ 0.0335 µM)	0.25 (≈ 0.559 µM)	≤ 0.062	≤ 0.015	–
≤ 0.015	C[C@@H](N1CCC(Nc2ccc(C(F)(F)F)cc2)CC1)[C@](O)(Cn1cncn1)c1ccc(F)cc1F [Example 46, (2R,3R)-2-(2,4-difluorophenyl)-1-(1H-1,2,4-triazol-1-yl)-3-(4-((4-(trifluoromethyl)phenyl)amino)piperidin-1-yl)butan-2-ol]	–	–	–	–	–	–	–	–
–	Cc1cc(C(F)(F)F)cnc1N1CCC(N[C@H](C)[C@](O)(Cn2cncn2)c2ccc(F)cc2F)CC1 [Example 148, (2R,3R)-2-(2,4-difluorophenyl)-3-((1-(3-methyl-5-(trifluoromethyl)pyridin-2-yl)piperidin-4-yl)amino)-1-(1H-1,2,4-triazol-1-yl)butan-2-ol]	–	0.25 (≈ 0.49 µM)	–	–	1 (≈ 1.96 µM)	≤ 0.062	≤ 0.015	–
≤ 0.015	C[C@@H](N1CCC(Nc2ccc(F)cc2)CC1)[C@](O)(Cn1cncn1)c1ccc(F)cc1F [Example 38, (2R,3R)-2-(2,4-difluorophenyl)-3-(4-((4-fluorophenyl)amino)piperidin-1-yl)-1-(1H-1,2,4-triazol-1-yl)butan-2-ol]	–	–	–	–	–	–	–	–
≤ 0.015	C[C@@H](N1CCC(Oc2ccccc2F)CC1)[C@](O)(Cn1cncn1)c1ccc(F)cc1F [Example 3, (2R,3R)-2-(2,4-difluorophenyl)-3-(4-(2-fluorophenoxy)piperidin-1-yl)-1-(1H-1,2,4-triazol-1-yl)butan-2-ol]	–	–	–	–	–	–	–	–
≤ 0.015	C[C@@H](NC1CCN(c2ccccc2)CC1)[C@](O)(Cn1cncn1)c1ccc(F)cc1F [Example 123, (2R,3R)-2-(2,4-difluorophenyl)-3-((1-phenylpiperidin-4-yl)amino)-1-(1H-1,2,4-triazol-1-yl)butan-2-ol]	–	–	–	–	–	–	–	–
